Where only a bound is given, the exact number is not on record here.

In this experiment the target is T1, BRD4 (Homo sapiens, UniProt O60885).
T1 construct: HEK293 containing a HiBit insertion for BRD4; endogenous in cells; host or cells: HEK293 with a HiBiT insertion for BRD4
The experiment can be described thus: Assay 1 - Degradation of HiBit-BRD4 in HEK293. Type of experiment: cell-based. The conditions noted are these: HiBit-BRD4 in HEK293, 6 h treatment. The method, then: 1.1 Assay 1-Degradation of HiBit-BRD4 in HEK293
HEK293 containing a HiBit insertion for BRD4 were plated in 384-well tissue culture plates at a density of 8×10^4 per well in a volume of 36 μL and incubated overnight at 37° C. and 5% CO2. Wells were treated with test compounds for 6 h prior to addition of the NanoLuc substrate and reading on a […]. Degradation data was plotted and analysed using […] (Graphpad).
For orientation: HiBiT is a short tag that completes a luciferase, so light tracks the accessible tagged protein.
The DC50 is the midpoint of the concentration-degradation curve. A high value points to a less potent degrader. Broadly, the Dmax is the greatest extent of degradation seen. Read a high Dmax as deep degradation. In turn, `COc1ccc(C2CC(C(=O)NCCOCCOCCOCCOCCOCCNC(=O)c3ccc(-c4ccc5c(c4)[C@H](Nc4ccc(Cl)cc4)C[C@H](C)N5C(C)=O)cc3)CN(C(=O)/C(C#N)=C/c3ccc(F)cc3)C2)cc1` (stereo partly shown) [Example 13ah] yielded a DC50 of 25 to 200 nM and a Dmax not below 70%.

In the case of `CC(=O)N1c2ccc(-c3ccc(C(=O)NCCOCCOCCOCCOCCOCCNC(=O)C4CC(c5ccc(C(F)(F)F)cc5)CN(C(=O)/C(C#N)=C/C(C)(C)CN5CCOCC5)C4)cc3)cc2[C@H](Nc2ccc(Cl)cc2)C[C@@H]1C` (stereo partly shown) [Example 13an], the DC50 lay in the range of 25 to 200 nM and the Dmax was in the range of 30 to 50%.

In the case of `CC(=O)N1c2ccc(-c3ccc(C(=O)NCCOCCOCCOCCOCCOCCNC(=O)C4CCCN(C(=O)/C(C#N)=C/c5ccc(F)cc5)C4)cc3)cc2[C@H](Nc2ccc(Cl)cc2)C[C@@H]1C` (stereo partly shown) [Example 13d], the DC50 was more than 200 nM and the Dmax fell in the range of 30 to 50%.

Consider `CC(=O)N1c2ccc(-c3ccc(C(=O)NCCOCCOCCOCCOCCOCCNC(=O)[C@@H]4CN(C(=O)/C(C#N)=C/c5nccs5)C[C@H]4C(C)C)cc3)cc2[C@H](Nc2ccc(Cl)cc2)C[C@@H]1C` [Example 15f], for which the DC50 was more than 200 nM and the maximal degradation (Dmax) lay within 30 to 50%.

Compound `CC(=O)N1c2ccc(-c3ccc(C(=O)NCCOCCOCCOCCOCCOCCNC(=O)C4CC(c5cccc(C)c5)CN(C(=O)/C(C#N)=C/C(C)(C)CN5CCOCC5)C4)cc3)cc2[C@H](Nc2ccc(Cl)cc2)C[C@@H]1C` (stereo partly shown) [Example 13ax] yielded a DC50 of less than 25 nM and a Dmax not below 70%.

Compound `CC(=O)N1c2ccc(-c3ccc(C(=O)NCCOCCOCCOCCOCCOCCNC(=O)C4CC(C5CCCCC5)CN(C(=O)/C(C#N)=C/c5ccc(F)cc5)C4)cc3)cc2[C@H](Nc2ccc(Cl)cc2)C[C@@H]1C` (stereo partly shown) [Example 13s] registered a 50% degradation concentration (DC50) of 25 to 200 nM and a Dmax not below 70%.

As for `CC(=O)N1c2ccc(-c3ccc(C(=O)NCCOCCOCCOCCOCCOCCNC(=O)C4CC(c5ccccc5)CN(C(=O)/C(C#N)=C/C(C)(C)C)C4)cc3)cc2[C@H](Nc2ccc(Cl)cc2)C[C@@H]1C` (stereo partly shown) [Example 13aa], the DC50 is more than 200 nM and the Dmax was not below 70%.

`CC(=O)N1c2ccc(-c3ccc(C(=O)NCCOCCOCCOCCOCCOCCNC(=O)[C@@H]4CN(C(=O)/C(C#N)=C/C(C)(C)CN5CCOCC5)C[C@H]4CC(C)C)cc3)cc2[C@H](Nc2ccc(Cl)cc2)C[C@@H]1C` [Example 15o] had a DC50 of 25 to 200 nM and a Dmax of 50 to 70%.

With `CC(=O)N1c2ccc(-c3ccc(C(=O)NCCOCCOCCOCCOCCOCCNC(=O)[C@@H]4CN(C(=O)/C(C#N)=C/c5ccn(C)n5)C[C@H]4c4ccccc4)cc3)cc2[C@H](Nc2ccc(Cl)cc2)C[C@@H]1C` [Example 15w], the DC50 was in the range of 25 to 200 nM and the Dmax fell in the range of 30 to 50%.

In turn, `CC(=O)N1c2ccc(-c3ccc(C(=O)NCCOCCOCCOCCOCCOCCNC(=O)C4CC(C5CCCCC5)CN(C(=O)/C(C#N)=C/C(C)(C)CN5CCOCC5)C4)cc3)cc2[C@H](Nc2ccc(Cl)cc2)C[C@@H]1C` (stereo partly shown) [Example 13t] yielded a DC50 of 25 to 200 nM and a Dmax not below 70%.

Turning to `CC(=O)N1c2ccc(-c3ccc(C(=O)NCCOCCOCCOCCOCCOCCNC(=O)C4CCCN(C(=O)/C(C#N)=C/c5ccn(C)n5)C4)cc3)cc2[C@H](Nc2ccc(Cl)cc2)C[C@@H]1C` (stereo partly shown) [Example 13c], the DC50 was in the range of 25 to 200 nM and the greatest degradation seen (Dmax) was less than 50%.

Take `COc1ccc(C2CC(C(=O)NCCOCCOCCOCCOCCOCCNC(=O)c3ccc(-c4ccc5c(c4)[C@H](Nc4ccc(Cl)cc4)C[C@H](C)N5C(C)=O)cc3)CN(C(=O)/C(C#N)=C/c3nccs3)C2)cc1` (stereo partly shown) [Example 13ae]: the DC50 was 25 to 200 nM and the Dmax was not below 70%.

`CC(=O)N1c2ccc(-c3ccc(C(=O)NCCOCCOCCOCCOCCOCCNC(=O)C4CC(C)CN(C(=O)/C(C#N)=C/c5ccc(F)cc5)C4)cc3)cc2[C@H](Nc2ccc(Cl)cc2)C[C@@H]1C` (stereo partly shown) [Example 13i] had a DC50 of more than 200 nM and a Dmax of 30 to 50%.

With `CC(=O)N1c2ccc(-c3ccc(C(=O)NCCOCCOCCOCCOCCOCCNC(=O)C4CC(c5ccccc5)CN(C(=O)/C(C#N)=C/c5ccc(F)cc5)C4)cc3)cc2[C@H](Nc2ccc(Cl)cc2)C[C@@H]1C` (stereo partly shown) [Example 13ac], the DC50 fell in the range of 25 to 200 nM and the Dmax was not below 70%.

`CC(=O)N1c2ccc(-c3ccc(C(=O)NCCOCCOCCOCCOCCOCCNC(=O)[C@@H]4CN(C(=O)/C(C#N)=C/C(C)(C)C)C[C@H]4C4CCCCC4)cc3)cc2[C@H](Nc2ccc(Cl)cc2)C[C@@H]1C` [Example 15q] returned a DC50 of 25 to 200 nM and a Dmax not below 70%.

In the case of `CC(=O)N1c2ccc(-c3ccc(C(=O)NCCOCCOCCOCCOCCOCCNC(=O)C4CC(c5cccc(C)c5)CN(C(=O)/C(C#N)=C/c5ccn(C)n5)C4)cc3)cc2[C@H](Nc2ccc(Cl)cc2)C[C@@H]1C` (stereo partly shown) [Example 13av], the 50% degradation concentration (DC50) is more than 200 nM and the Dmax was in the range of 50 to 70%.

Compound `CC(=O)N1c2ccc(-c3ccc(C(=O)NCCOCCOCCOCCOCCOCCNC(=O)C4CC(C(C)C)CN(C(=O)/C(C#N)=C/C(C)(C)C)C4)cc3)cc2[C@H](Nc2ccc(Cl)cc2)C[C@@H]1C` (stereo partly shown) [Example 13l] registered a DC50 of more than 200 nM and a Dmax of 30 to 50%.

As to `CC(=O)N1c2ccc(-c3ccc(C(=O)NCCOCCOCCOCCOCCOCCNC(=O)[C@@H]4CN(C(=O)/C(C#N)=C/C(C)(C)C)C[C@H]4c4ccc(F)cc4)cc3)cc2[C@H](Nc2ccc(Cl)cc2)C[C@@H]1C` [Example 15af], the DC50 is 25 to 200 nM and the Dmax was not below 70%.

The compound `CC(=O)N1c2ccc(-c3ccc(C(=O)NCCOCCOCCOCCOCCOCCNC(=O)C4CC(C5CCCCC5)CN(C(=O)/C(C#N)=C/C(C)(C)C)C4)cc3)cc2[C@H](Nc2ccc(Cl)cc2)C[C@@H]1C` (stereo partly shown) [Example 13q] came in with a DC50 of 25 to 200 nM and a Dmax of 50 to 70%.

`CC(=O)N1c2ccc(-c3ccc(C(=O)NCCOCCOCCOCCOCCOCCNC(=O)[C@@H]4CN(C(=O)/C(C#N)=C/c5ccc(F)cc5)C[C@H]4c4ccc(F)cc4)cc3)cc2[C@H](Nc2ccc(Cl)cc2)C[C@@H]1C` [Example 15ah] had a DC50 of more than 200 nM and a Dmax of 30 to 50%.

Consider `COc1ccc(C2CC(C(=O)NCCOCCOCCOCCOCCOCCNC(=O)c3ccc(-c4ccc5c(c4)[C@H](Nc4ccc(Cl)cc4)C[C@H](C)N5C(C)=O)cc3)CN(C(=O)/C(C#N)=C/C(C)(C)CN3CCOCC3)C2)cc1` (stereo partly shown) [Example 13ai], for which the DC50 is more than 200 nM and the Dmax is 30 to 50%.

In turn, `CC(=O)N1c2ccc(-c3ccc(C(=O)NCCOCCOCCOCCOCCOCCNC(=O)[C@@H]4CN(C(=O)/C(C#N)=C/c5ccc(F)cc5)C[C@H]4C4CCCCC4)cc3)cc2[C@H](Nc2ccc(Cl)cc2)C[C@@H]1C` [Example 15s] gave a DC50 of 25 to 200 nM and a maximal degradation (Dmax) of 50 to 70%.

`CC(=O)N1c2ccc(-c3ccc(C(=O)NCCOCCOCCOCCOCCOCCNC(=O)C4CC(C(C)C)CN(C(=O)/C(C#N)=C/c5ccn(C)n5)C4)cc3)cc2[C@H](Nc2ccc(Cl)cc2)C[C@@H]1C` (stereo partly shown) [Example 13m] returned a half-maximal degradation concentration (DC50) of 25 to 200 nM and a Dmax of 50 to 70%.

In turn, `CC(=O)N1c2ccc(-c3ccc(C(=O)NCCOCCOCCOCCOCCOCCNC(=O)C4CC(c5ccc(C(F)(F)F)cc5)CN(C(=O)/C(C#N)=C/C(C)(C)C)C4)cc3)cc2[C@H](Nc2ccc(Cl)cc2)C[C@@H]1C` (stereo partly shown) [Example 13ak] registered a DC50 of 25 to 200 nM and a Dmax not below 70%.

The compound `CC(=O)N1c2ccc(-c3ccc(C(=O)NCCOCCOCCOCCOCCOCCNC(=O)C4CC(C5CCCCC5)CN(C(=O)/C(C#N)=C/c5nccs5)C4)cc3)cc2[C@H](Nc2ccc(Cl)cc2)C[C@@H]1C` (stereo partly shown) [Example 13p] registered a DC50 of less than 25 nM and a Dmax not below 70%.

`CC(=O)N1c2ccc(-c3ccc(C(=O)NCCOCCOCCOCCOCCOCCNC(=O)[C@@H]4CN(C(=O)/C(C#N)=C/C(C)(C)C)C[C@H]4CC(C)C)cc3)cc2[C@H](Nc2ccc(Cl)cc2)C[C@@H]1C` [Example 15l] registered a DC50 of 25 to 200 nM and a Dmax not below 70%.

Turning to `CC(=O)N1c2ccc(-c3ccc(C(=O)NCCOCCOCCOCCOCCOCCNC(=O)[C@@H]4CN(C(=O)/C(C#N)=C/c5ccn(C)n5)C[C@H]4CC(C)C)cc3)cc2[C@H](Nc2ccc(Cl)cc2)C[C@@H]1C` [Example 15m], the DC50 was in the range of 25 to 200 nM and the Dmax lay within 50 to 70%.

Take `CC(=O)N1c2ccc(-c3ccc(C(=O)NCCOCCOCCOCCOCCOCCNC(=O)C4CC(C5CC5)CN(C(=O)/C(C#N)=C/c5ccc(F)cc5)C4)cc3)cc2[C@H](Nc2ccc(Cl)cc2)C[C@@H]1C` (stereo partly shown) [Example 13x]: the 50% degradation concentration (DC50) is 25 to 200 nM and the Dmax is not below 70%.

`CC(=O)N1c2ccc(-c3ccc(C(=O)NCCOCCOCCOCCOCCOCCNC(=O)[C@@H]4CN(C(=O)/C(C#N)=C/c5nccs5)C[C@H]4C4CCCCC4)cc3)cc2[C@H](Nc2ccc(Cl)cc2)C[C@@H]1C` [Example 15p] yielded a DC50 of 25 to 200 nM and a Dmax not below 70%.

In turn, `CC(=O)N1c2ccc(-c3ccc(C(=O)NCCOCCOCCOCCOCCOCCNC(=O)C4CC(c5cccc(C)c5)CN(C(=O)/C(C#N)=C/c5ccc(F)cc5)C4)cc3)cc2[C@H](Nc2ccc(Cl)cc2)C[C@@H]1C` (stereo partly shown) [Example 13aw] came in with a DC50 of more than 200 nM and a Dmax of less than 50%.

`CC(=O)N1c2ccc(-c3ccc(C(=O)NCCOCCOCCOCCOCCOCCNC(=O)C4CC(c5ccccc5)CN(C(=O)/C(C#N)=C/c5ccn(C)n5)C4)cc3)cc2[C@H](Nc2ccc(Cl)cc2)C[C@@H]1C` (stereo partly shown) [Example 13ab] came in with a DC50 of more than 200 nM and a maximal degradation (Dmax) of 50 to 70%.

For the compound `CC(=O)N1c2ccc(-c3ccc(C(=O)NCCOCCOCCOCCOCCOCCNC(=O)[C@@H]4CN(C(=O)/C(C#N)=C/c5ccc(F)cc5)C[C@H]4c4ccccc4)cc3)cc2[C@H](Nc2ccc(Cl)cc2)C[C@@H]1C` [Example 15x], the DC50 was more than 200 nM and the Dmax lay in the range of 30 to 50%.

The values above are taken from patent US20260232812A1, “BIFUNCTIONAL MOLECULES FOR TARGETED PROTEIN DEGRADATION” (Amphista Therapeutics Limited, priority 2022, published 2026).
